Test results reported in US10794898B2, “High-throughput, high-precision methods for detecting protein structural changes in living cells” (REGENTS OF THE UNIVERSITY OF MINNESOTA, priority 2014, dated 2020).
Like-named read-outs stand apart in the source and are kept apart here.

Tests used:
GFP-SERCA2a = assay: Donor-only control: GFP lifetime in GFP-SERCA2a cells; assay type: cell-based, canine
Description: The 96-well plate format LOPAC library was reformatted into four 384-well polystyrene mother plates (Corning, Corning, N.Y.) using a Biomek FX liquid handler (Beckman Coulter, Brea, Calif.), and diluted to 500 μM using DMSO. Column 1, 22, 23 and 24 were loaded with DMSO for in-plate no-compound controls. The LOPAC compounds were distributed in column 2 through 21. Each plate contains 64 wells of DMSO controls, and 320 wells of compounds from the LOPAC library. Black well, high-quality-glass bottom Greiner 384-well microplates (PN 781892) were selected as the assay plates for their optical clarity, low autofluorescence, and low inter-well cross-talks. […] Cells were collected and pelleted for 5 min at 500 g and resuspended in 10 mL PBS, then analyzed on a Countess cell counter (Invitrogen) and diluted to 1×10^6 cells/mL. […] Assay plates were spun for 1 min at 200 g and allowed to incubate at RT for 20 min before reading on a fluorescence lifetime plate reader (constructed in collaboration with Fluorescence Innovations, Inc., Minneapolis, Minn.). GFP fluorescence was excited with a 473 nm microchip laser from Concepts Research Corporation (Belgium, Wis.) and emission was filtered with 490 nm long pass and 520/35 nm band pass filters from Semrock (Rochester, N.Y.).
Time-resolved fluorescence waveforms for each well were fitted to single-exponential decays using global analysis software. […]

2-color SERCA2a (2CS) = target: T1, 2-color SERCA2a (2CS) (Canis lupus familiaris, UniProt O46674, INS508[…]); assay: Live-cell 2-color SERCA (2CS) FRET assay in fluorescence lifetime plate reader; assay type: cell-based, canine; details: for LOPAC library screen outcome (2CS GFP lifetime outside 3SD window): hit = lifetime change more than 3 SD from DMSO controls, repeated
T1 construct: expressed in transfected cells
Text: Using recombinant DNA technology, the gene for TagRFP was fused to the N-terminus of canine SERCA2a. This fusion position is in the A-domain of the pump. EGFP was fused as an intrasequence tag before residue 509 in the N-domain. The structural model presented in FIG. 1A corresponds to the isoform SERCA1a, which is 84% homologous to SERCA2a. Hou et al. evaluated several intrasequence fusion positions chosen using x-ray crystal structures of SERCA1a to identify unstructured loops and predict large relative distance changes without affecting SERCA function. (Hou et al., PLoS ONE 2012, 7, e40369). The 509 site was chosen because the labeled construct had normal SERCA activity and its intramolecular FRET signal was sensitive to SERCA structural state, as shown below.
The 96-well plate format LOPAC library was reformatted into four 384-well polystyrene mother plates (Corning, Corning, N.Y.) using a Biomek FX liquid handler (Beckman Coulter, Brea, Calif.), and diluted to 500 μM using DMSO. Column 1, 22, 23 and 24 were loaded with DMSO for in-plate no-compound controls. The LOPAC compounds were distributed in column 2 through 21. Each plate contains 64 wells of DMSO controls, and 320 wells of compounds from the LOPAC library. Black well, high-quality-glass bottom Greiner 384-well microplates (PN 781892) were selected as the assay plates for their optical clarity, low autofluorescence, and low inter-well cross-talks. Compounds (1 μL) were transferred from the mother plates into assay plates using a Mosquito HV liquid handler (TTP Labtech Ltd, UK). The plates were sealed and stored at −20° C. until use. On the day of screening, the plates were equilibrated to room temperature (25° C.). Stable GFP-SERCA2a (donor only control) or 2CS cells were lifted from a 225 cm^2 flask by incubating with TrypLE (Invitrogen) for 5 min. Cells were collected and pelleted for 5 min at 500 g and resuspended in 10 mL PBS, then analyzed on a Countess cell counter (Invitrogen) and diluted to 1×10^6 cells/mL. 49 μL Cells were plated on top of the compounds by a FlexDrop IV reagent dispenser (PerkinElmer, Waltham, Mass.). Assay plates were spun for 1 min at 200 g and allowed to incubate at RT for 20 min before reading on a fluorescence lifetime plate reader (constructed in collaboration with Fluorescence Innovations, Inc., Minneapolis, Minn.). GFP fluorescence was excited with a 473 nm microchip laser from Concepts Research Corporation (Belgium, Wis.) and emission was filtered with 490 nm long pass and 520/35 nm band pass filters from Semrock (Rochester, N.Y.).
Time-resolved fluorescence waveforms for each well were fitted to single-exponential decays using global analysis software. Each plate contained 64 control wells with only DMSO, and a hit was defined as a compound that changed the 2CS donor lifetime by more than three times the standard deviation (SD) relative to the controls. Fluorescent compounds that caused the intensity of both untransfected HEK cells and 2CS cells to be more than 3SD outside the mean of the 64 controls on a plate were excluded from the hits as likely false positives.

SERCA = target: T2, SERCA (Sus scrofa, UniProt P11607); assay: Enzyme-coupled, NADH-linked SERCA ATPase assay in pig cardiac SR; assay type: biochemical; parameters: inhibition of ATPase activity: dose or concentration left out as unconfirmed
T2 construct: Cardiac sarcoplasmic reticulum (SR) vesicles were prepared from the ventricular tissue of swine hearts; from tissue; host or cells: ventricular tissue of swine hearts (cardiac SR vesicles)
Description: An enzyme-coupled, NADH-linked ATPase assay was used to measure SERCA ATPase activity (Stergiopoulos et al., BMC Health Serv Res 2012, 12, 345). in 96-well microplates. Each well contained 50 mM MOPS (pH 7.0), 100 mM KCl, 5 mM MgCl2, 1 mM EGTA, 0.2 mM NADH, 1 mM phosphoenol pyruvate, 10 IU/mL of pyruvate kinase, 10 IU/mL of lactate dehydrogenase, 3.5 μg/mL of the calcium ionophore A23187, and CaCl2 added to set free [Ca^2+] to the desired values. (Mueller et al., Biochemistry 2004, 43, 8754-8765). 2.5 μg of cardiac SR or 25 μg of HEK cell homogenate were used in each well to correct for the difference in SERCA content. The assay was started upon the addition of ATP at a final concentration of 5 mM and read in a SpectraMax Plus microplate spectrophotometer (Molecular Devices, Sunnyvale, Calif.), bring the total volume to 200 μL. Results were normalized to SERCA content determined from immunoblotting.
Effects of known activators and LOPAC hits on SERCA ATPase activity was evaluated in pig cardiac SR. Compounds were dissolved in DMSO, and adjusted to […] the concentrations used in the final assay wells. 4 μL prediluted compounds were added to each well to keep the final [DMSO] at 2% (v/v).

Plasmodium falciparum = details: cited from earlier work
[1] = tested on: Ca2+ uptake into microsomes; details: cited from earlier work

T2 sequence (P11607 1-997 isoform P11607-2): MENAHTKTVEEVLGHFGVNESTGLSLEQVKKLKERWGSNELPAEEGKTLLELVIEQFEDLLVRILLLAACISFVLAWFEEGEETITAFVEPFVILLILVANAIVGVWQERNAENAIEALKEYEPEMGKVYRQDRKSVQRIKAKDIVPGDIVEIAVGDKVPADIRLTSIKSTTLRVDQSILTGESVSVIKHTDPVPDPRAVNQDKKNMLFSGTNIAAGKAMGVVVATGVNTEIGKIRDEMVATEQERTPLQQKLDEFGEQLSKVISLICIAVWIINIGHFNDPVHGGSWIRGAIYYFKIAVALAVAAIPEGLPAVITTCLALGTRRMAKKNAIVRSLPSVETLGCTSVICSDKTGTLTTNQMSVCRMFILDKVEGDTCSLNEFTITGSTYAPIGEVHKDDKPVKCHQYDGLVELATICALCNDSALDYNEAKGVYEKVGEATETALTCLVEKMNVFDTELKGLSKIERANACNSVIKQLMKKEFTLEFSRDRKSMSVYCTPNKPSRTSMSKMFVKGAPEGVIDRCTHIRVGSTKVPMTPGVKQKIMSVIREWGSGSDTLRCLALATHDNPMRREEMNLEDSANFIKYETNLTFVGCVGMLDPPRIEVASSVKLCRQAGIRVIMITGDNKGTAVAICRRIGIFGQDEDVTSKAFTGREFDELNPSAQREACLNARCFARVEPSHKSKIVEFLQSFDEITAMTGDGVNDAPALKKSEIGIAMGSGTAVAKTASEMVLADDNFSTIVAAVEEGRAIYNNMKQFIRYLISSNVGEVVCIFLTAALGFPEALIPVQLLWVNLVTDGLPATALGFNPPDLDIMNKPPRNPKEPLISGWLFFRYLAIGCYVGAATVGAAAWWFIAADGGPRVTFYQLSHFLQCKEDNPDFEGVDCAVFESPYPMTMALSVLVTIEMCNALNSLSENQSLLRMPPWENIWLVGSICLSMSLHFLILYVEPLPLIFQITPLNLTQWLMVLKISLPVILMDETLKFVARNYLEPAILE

COc1cc(/C=C(\C#N)C(=O)Nc2nnc(C(F)(F)F)s2)ccc1OCc1ccc(C(F)(F)F)cc1C(F)(F)F [XCT 790]
effect on the lifetime of GFP-SERCA2a alone (GFP-SERCA2a): no effect | reduction of FRET (2-color SERCA2a (2CS); dose-response assay, concentration not given): ~42% | LOPAC library screen outcome (2CS GFP lifetime outside 3SD window) (2-color SERCA2a (2CS)): reproducible hits | effect on ATPase activity at the highest concentrations tested (SERCA): completely inhibit ATPase activity

CC(=O)C1=C(O)[C@@H]2[C@H]3c4c[nH]c5cccc(c45)C[C@H]3C(C)(C)N2C1=O [CPA, cyclopiazonic acid]
Kd (SERCA): ~40 nM

[Cl-].c1ccc2c(c1)[I+]c1ccccc1-2 [DPI, diphenyline iodonium chloride]
IC50 for inhibition of parasite growth (Plasmodium falciparum): submicromolar | inhibition of Ca2+ uptake into microsomes ([1]; 30 µM): 18% | inhibition of Ca2+ uptake into microsomes ([1]; 100 µM): 32% | FRET efficiency at maximal effect (2-color SERCA2a (2CS); basal FRET 0.12): 0.10 | LOPAC library screen outcome (2CS GFP lifetime outside 3SD window) (2-color SERCA2a (2CS)): reproducible hits | maximal reduction of FRET (2-color SERCA2a (2CS); maximal effect in dose-response): ~18% | inhibition of ATPase activity (SERCA): < 50% | functional (ATPase) inhibition (SERCA; below 10 μM): very little functional inhibition

Cc1ccc2cccc(NC(=O)c3ccc(OC(C)C)cc3)c2n1 [CDN1163]
effect on FRET between GFP and RFP in 2CS (2-color SERCA2a (2CS); dose-response, live cells): reduce FRET | mode of SERCA activation (SERCA): increasing the activity at saturating [Ca^2+]

C/C=C(/C)C(=O)O[C@H]1C(C)=C2[C@H]([C@@H]1OC(=O)CCCCCCC)[C@@](C)(OC(C)=O)C[C@H](OC(=O)CCC)[C@@]1(O)[C@H]2OC(=O)[C@@]1(C)O [TG, thapsigargin]
reduction of FRET (2-color SERCA2a (2CS); at 7.5 nM): ~33% | LOPAC library screen outcome (2CS GFP lifetime outside 3SD window) (2-color SERCA2a (2CS)): reproducible hits | ATPase activity (SERCA; at 7.5 nM): nearly ablated | effect on ATPase activity at the highest concentrations tested (SERCA): completely inhibit ATPase activity
